Assay results taken from ChEMBL document CHEMBL6074673, “Discovery of UCB9386: A Potent, Selective, and Brain-Penetrant Nuak1 Inhibitor Suitable for In Vivo Pharmacological Studies” (J Med Chem, 2024).
Converted amounts (≈) assume the structure as drawn.

Columns and labels:
[1] = physchem; conditions: buffer, pH 7.4
Description: Photostability of compound at pH 7.4 under ambient light assessed as compound remaining at 250 uM measured after 24 hrs by 2 LC-MS analysis

[2] = in vivo; conditions: mouse, brain, 0.5 mg/kg
Description: Ratio of unbound drug concentration in brain to plasma of mouse at 0.5 mg/kg

[3] = physchem; conditions: buffer, pH 7.4; remark: listed apart in the source
Description: Thermodynamic solubility of compound at pH 7.4

[4] = human, microsomes
[5] = Metabolic stability in mouse liver microsomes assessed as intrinsic clearance; format: ADME, Microsome
[6] = in vitro; conditions: human, Caco-2
Description: Apparent permeability in human Caco-2 cells

[7] = Dissociation constant, pKa of compound; format: physicochemical
[8] = in vitro; conditions: mouse, hepatocytes
Description: Metabolic stability in mouse hepatocytes assessed as intrinsic clearance measured per million cells

[9] = in vitro; conditions: human, hepatocytes
Description: Metabolic stability in human hepatocytes assessed as intrinsic clearance measured per million cells

Row | SMILES | remaining at 24 h, 250 µM [1] [%] | Kp uu [2] | solubility thermodynamic [3] [µM] | CLH [4] [mL/min/g] | CLH [5] [mL/min/g] | Papp [6] [×10⁻⁶ cm/s] | pKa [7] | hepatocyte CLint [8] [µL/min/1e6 cells] | hepatocyte CLint [9] [µL/min/1e6 cells]
1 | O=c1cnc2cnc(-c3cnc4cccnn34)cc2n1Cc1ccccc1 | > 97 | – | – | 34 | – | 24.4 | – | – | –
2 | CN1C[C@H]2C[C@@H]1CN2c1nc2cnc(-c3cnc4cccnn34)cc2n(Cc2ccccc2)c1=O | – | 0.5 | 456 (≈ 212 µg/mL) | 83 | 58 | 12.5 | 8.4 | – | –
3 | O=c1c(N2CCOCC2)nc2cnc(-c3cnc4cccnn34)cc2n1Cc1ccccc1 | – | – | – | 29 | 52 | – | – | – | –
4 | CN1CCN(c2nc3cnc(-c4cnc5cccnn45)cc3n(Cc3ccccc3)c2=O)CC1 | – | – | < 1 | 73 | 227 | 23.6 | 7.6 | – | –
5 | O=c1c(N2CCC2)nc2cnc(-c3cnc4cccnn34)cc2n1Cc1ccccc1 | – | – | – | 63 | 226 | – | – | – | –

More lines, now with the values ahead:

Row | remaining at 24 h, 250 µM [1] [%] | Kp uu [2] | solubility thermodynamic [3] [µM] | CLH [4] [mL/min/g] | CLH [5] [mL/min/g] | Papp [6] [×10⁻⁶ cm/s] | pKa [7] | hepatocyte CLint [8] [µL/min/1e6 cells] | hepatocyte CLint [9] [µL/min/1e6 cells] | SMILES
6 | 39 | – | – | – | – | – | – | – | – | CC1Oc2ccc(-c3cnc4ccccn34)nc2N(Cc2ccccc2)C1=O (stereo not drawn)
7 | – | 0.07 | 2 (≈ 0.901 µg/mL) | 22 | 10 | 13.2 | 8.7 | – | – | O=c1c(N2CC3CC(C2)N3)nc2cnc(-c3cnc4cccnn34)cc2n1Cc1ccccc1
8 | – | – | < 1 | 42 | 32 | 10.7 | 8.5 | – | – | O=c1c(N2CCNCC2)nc2cnc(-c3cnc4cccnn34)cc2n1Cc1ccccc1
9 | – | – | – | 16 | 3 | 8.6 | 8.8 | – | – | O=c1c(N2C[C@H]3C[C@@H]2CN3)nc2cnc(-c3cnc4cccnn34)cc2n1Cc1ccccc1
10 | – | – | – | 4 | 11 | 13.9 | – | – | – | O=c1c(C(F)F)nc2cnc(-c3cnc4cccnn34)cc2n1Cc1ccccc1
11 | – | 0.026 | 356 (≈ 165 µg/mL) | 21 | – | 8.3 | – | 6 | 9 | C[C@H](c1ccccc1)n1c(=O)c(N2CC3CC(C2)N3)nc2cnc(-c3cnc4cccnn34)cc21
